Test: in vitro
Conditions: human, hela cells, % viability

SMILES	viability at 28.5 h, 10 µM [%]
C[C@@H](Nc1nc(-c2cc(C(F)(F)F)cc(C(F)(F)F)c2)cnc1N)c1ccccc1 [CBK063720]	105
CCCC/C=C/c1cnc(N)c(N[C@@H](C)c2ccccc2)n1 [CBK063722]	109
C[C@@H](Nc1nc(-c2ccccc2)cnc1N)c1ccccc1 [CBK063728]	98.9
CC(C)[C@@H](CO)Nc1nc(-c2cncnc2)cnc1N [CBK063735]	99.4
C[C@@H](Nc1nc(-c2ccco2)cnc1N)c1ccccc1 [CBK063737]	108
COc1ccc(-c2cnc(N)c(N[C@H](C)c3ccccc3)n2)c(OC)c1OC [CBK063747]	105
Nc1ncc(-c2ccccc2)nc1NC1CCOCC1 [CBK063748]	97.3
COc1ccccc1-c1cnc(N)c(N[C@@H](CO)C(C)C)n1 [CBK063749]	101
C[C@H](Nc1nc(-c2cccc(-c3ccccc3)c2)cnc1N)c1ccccc1 [CBK063752]	94.5
C[C@H](Nc1nc(-c2cccc(/C=C/C(=O)O)c2)cnc1N)c1ccccc1 [CBK063754]	85.2
C[C@@H](Nc1nc(-c2cccc3ncccc23)cnc1N)c1ccccc1 [CBK063755]	107
CC(C)[C@@H](CO)Nc1nc(-c2cccc(Br)c2)cnc1N [CBK063758]	99.5
COc1ccc(-c2cnc(N)c(N[C@@H](C)c3ccccc3)n2)c(OC)c1OC [CBK063763]	84.9
CC(=O)c1ccc(-c2cnc(N)c(NCC(C)C)n2)s1 [CBK063764]	92.8
C[C@H](Nc1nc(-c2cc(C(F)(F)F)cc(C(F)(F)F)c2)cnc1N)c1ccccc1 [CBK063768]	106
CC(C)CNc1nc(-c2cccnc2)cnc1N [CBK063780]	99.5
C[C@@H](Nc1nc(-c2cccc3cccnc23)cnc1N)c1ccccc1 [CBK063784]	90
Nc1ncc(-c2ccco2)nc1NC1CCOCC1 [CBK063806]	102
CC(C)CNc1nc(-c2ccc(F)cc2)cnc1N [CBK063815]	105
Nc1ncc(-c2ccncc2)nc1NCC1CCOCC1 [CBK063816]	105
NC(=O)c1cccc(-c2cnc(N)c(NC3CCOCC3)n2)c1 [CBK063836]	98.8
Nc1ncc(-c2ccccc2CO)nc1Nc1ccc2[nH]ccc2c1 [CBK063843]	109
COc1cncc(-c2cnc(N)c(NC3CCOCC3)n2)c1 [CBK063846]	85.7

SMILES	viability at 28.5 h, 10 µM [%]
Nc1ncc(-c2cccc(F)c2)nc1Nc1ccc2[nH]ccc2c1 [CBK063851]	95.1
Nc1ncc(-c2cccc3ncccc23)nc1NC1CCOCC1 [CBK063852]	101
Nc1ncc(-c2cccc(Br)c2)nc1NC1CCOCC1 [CBK063854]	108
Nc1ncc(-c2ccoc2)nc1Nc1ccc2[nH]ccc2c1 [CBK063868]	80.5
CC(C)CNc1nc(-c2cccc(N(C)C)c2)cnc1N [CBK063870]	97
COc1ccc(-c2nc(-c3ccc(C#N)cc3)cnc2N)cc1OC [CBK063885]	94.6
Nc1ncc(-c2cccc(/C=C/C(=O)O)c2)nc1NCCCO [CBK063887]	103
Nc1ncc(-c2ccncc2)nc1-c1cccc2c1oc1ccccc12 [CBK063889]	102
CCCC/C=C/c1cnc(N)c(-c2ccc(N3CCOCC3)cc2)n1 [CBK063891]	101
COCCNc1nc(-c2cccc(C(N)=O)c2)cnc1N [CBK063901]	115
CC(C)[C@H](CO)Nc1nc(-c2ccccc2)cnc1N [CBK063933]	107
CN(C)c1ccc(-c2nc(-c3ccco3)cnc2N)cc1 [CBK063934]	104
Nc1ncc(-c2ccc(Cl)cc2)nc1-c1ccc(N2CCOCC2)cc1 [CBK063953]	111
COc1ccc(-c2nc(-c3cc4ccccc4s3)cnc2N)cc1OC [CBK063963]	98.6
COc1ccc(-c2nc(-c3ccoc3)cnc2N)cc1OC [CBK063964]	105
Nc1ncc(-c2ccoc2)nc1-c1ccc(C(=O)O)cc1 [CBK063972]	89.6
COCOc1ccc(-c2nc(-c3cccs3)cnc2N)cc1 [CBK063977]	101
COc1ccc(-c2nc(-c3cccs3)cnc2N)cc1OC [CBK063981]	107
COCOc1ccc(-c2nc(-c3cccc(NS(C)(=O)=O)c3)cnc2N)cc1 [CBK063985]	105
Nc1ncc(-c2cccs2)nc1-c1ccc(F)c(Cl)c1 [CBK063990]	101
NC(=O)c1cccc(-c2nc(-c3cc4ccccc4o3)cnc2N)c1 [CBK063996]	94.5
CN(C)c1cccc(-c2nc(-c3occc3C=O)cnc2N)c1 [CBK064001]	92.1
Nc1ncc(-c2occc2C=O)nc1-c1ccc(F)c(Cl)c1 [CBK064005]	101

SMILES	viability at 28.5 h, 10 µM [%]
Nc1ncc(-c2ccco2)nc1-c1ccc(F)c(Cl)c1 [CBK064013]	106
COc1ncc(-c2cnc(N)c(-c3cccc(N(C)C)c3)n2)c(OC)n1 [CBK064017]	90.9
Nc1ncc(-c2cccc(OC(F)(F)F)c2)nc1-c1ccc(F)c(Cl)c1 [CBK064021]	113
CC(=O)c1ccc(-c2nc(-c3ccoc3)cnc2N)cc1 [CBK064058]	97.3
N#Cc1ccc(-c2cnc(N)c(-c3ccc(C(=O)N4CCOCC4)cc3)n2)cc1 [CBK064067T]	116
CCCC/C=C/c1cnc(N)c(-c2ccc(O)cc2)n1 [CBK064068]	95.3
Nc1ncc(-c2cccc(OC(F)(F)F)c2)nc1-c1ccc(CCC(=O)O)cc1 [CBK064071]	95.2
Nc1ncc(-c2ccoc2)nc1-c1ccc(C(=O)N2CCOCC2)cc1 [CBK064076]	101
COc1ccccc1-c1cnc(N)c(N2CCC(C(=O)O)CC2)n1 [CBK064082]	96.1
Nc1ncc(-c2cccc(O)c2)nc1-c1ccc(C=O)cc1 [CBK064088]	104
CC(=O)c1ccc(-c2nc(-c3ccc(Cl)cc3)cnc2N)cc1 [CBK064097]	89.6
COc1ccc(-c2nc(-c3cc4ccccc4o3)cnc2N)cc1OC [CBK064099]	63.2
Nc1ncc(-c2ccncc2)nc1-c1ccc(C=O)cc1 [CBK064102]	106
CC(=O)c1ccc(-c2nc(-c3cccc(OC(F)(F)F)c3)cnc2N)cc1 [CBK064105]	103
NC(=O)c1cccc(-c2nc(-c3ccc(F)cc3F)cnc2N)c1 [CBK064109]	86.5
NC(=O)c1cccc(-c2nc(-c3cccs3)cnc2N)c1 [CBK064117]	89.7
Nc1ncc(-c2cc3ccccc3o2)nc1-c1ccc(C=O)cc1 [CBK064126]	91.9
Nc1ncc(-c2cccc(F)c2)nc1-c1ccc(C(=O)N2CCOCC2)cc1 [CBK064131]	88.4
Nc1ncc(-c2cccs2)nc1-c1ccc(C(=O)O)cc1 [CBK064133]	91.4
Nc1ncc(-c2cccc(O)c2)nc1-c1ccc(CCC(=O)O)cc1 [CBK064135]	103
CN1CCN(C(=O)c2cccc(-c3nc(-c4ccc(C#N)cc4)cnc3N)c2)CC1 [CBK064144]	100
CCCC/C=C/c1cnc(N)c(N[C@H](C)c2ccccc2)n1 [CBK064148]	95.1
COCCn1c(=O)[nH]c2ncc(-c3ccsc3)nc21 [CBK064156]	108

SMILES	viability at 28.5 h, 10 µM [%]
C[C@H](c1ccccc1)n1c(=O)[nH]c2ncc(-c3cccc(-c4ccccc4)c3)nc21 [CBK064158]	96.5
CC(=O)Nc1cccc(-c2cnc3[nH]c(=O)n([C@@H](C)c4ccccc4)c3n2)c1 [CBK064159]	98.2
C[C@@H](c1ccccc1)n1c(=O)[nH]c2ncc(-c3ccco3)nc21 [CBK064168]	112
C[C@H](c1ccccc1)n1c(=O)[nH]c2ncc(-c3cccc4ncccc34)nc21 [CBK064173]	89.6
COc1ccc(C(C)C)cc1-c1cnc2[nH]c(=O)n([C@H](C)c3ccccc3)c2n1 [CBK064181]	87.3
O=c1[nH]c2ncc(-c3cccc(OC(F)(F)F)c3)nc2n1C1CCCCC1 [CBK064187]	93.6
CC(=O)Nc1cccc(-c2cnc3[nH]c(=O)n([C@H](C)c4ccccc4)c3n2)c1 [CBK064188]	95.9
C[C@@H](c1ccccc1)n1c(=O)[nH]c2ncc(-c3cccc(-c4ccccc4)c3)nc21 [CBK064192]	88.8
CC(C)Cn1c(=O)[nH]c2ncc(-c3cccc4ccccc34)nc21 [CBK064194]	107
COc1ccccc1-c1cnc2[nH]c(=O)n(C3CCCCC3)c2n1 [CBK064203]	98.7
C[C@H](c1ccccc1)n1c(=O)[nH]c2ncc(-c3cccc(C(=O)NCCN(C)C)c3)nc21 [CBK064204]	96.5
COc1ccc(-c2cnc3[nH]c(=O)n(Cc4ccccc4)c3n2)cc1 [CBK064210]	103
O=c1[nH]c2ncc(-c3cccc4cccnc34)nc2n1C1CCCCC1 [CBK064215]	96
O=c1[nH]c2ncc(-c3ccsc3)nc2n1Cc1ccccc1 [CBK064227]	96.7
C[C@H](c1ccccc1)n1c(=O)[nH]c2ncc(-c3cccc4cccnc34)nc21 [CBK064237]	44.4
C[C@H](c1ccccc1)n1c(=O)[nH]c2ncc(-c3cccc4ccccc34)nc21 [CBK064241]	101
O=c1[nH]c2ncc(-c3cccc4ncccc34)nc2n1Cc1ccccc1 [CBK064245]	89.4
CN(C)CCn1c(=O)[nH]c2ncc(-c3ccco3)nc21 [CBK064251]	97.1
O=c1[nH]c2ncc(-c3cccc(-c4ccccc4)c3)nc2n1Cc1ccccc1 [CBK064252]	96.1
O=c1[nH]c2ncc(-c3ccc(-c4ccccc4)cc3)nc2n1Cc1cccnc1 [CBK064282]	94

Reference: publication PMC12040169 (PLOS Biology, 2025)
